Columns and labels:
Type in all cases: in vivo
[1] = test system: heartshape false pickerelweed (Monochoria vaginalis (Burm.f.) C.Presl); test: Test Example 1: herbicidal effect by soil application to paddy field; settings: paddy field soil application; active ingredient 1,000 g per 1 hectare; wettable powder added dropwise to water surface the day after sowing; examined on the 21st day after application
Outline: (§1)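 Plants were sown in flooded (3 cm) paddy soil and evaluated for herbicidal effect 21 days after soil application in a greenhouse.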

[2] = test system: Japanese bulrush (Scirpus juncoides Roxb.); test: as above; settings: paddy field soil application; active ingredient 1,000 g per 1 hectare; wettable powder added dropwise to water surface the day after sowing; examined on the 21st day after application
Outline: as §1

[3] = test system: early watergrass (Echinochloa oryzicola Vasing); test: as above; settings: paddy field soil application; active ingredient 1,000 g per 1 hectare; wettable powder added dropwise to water surface the day after sowing; examined on the 21st day after application
Outline: as §1

[4] = test system: barnyardgrass (Echinochloa crus-galli (L.) P. Beauv. var. crus-galli); test: Test Example 3: herbicidal effect by application to upland field (foliage treatment); settings: foliage treatment, plants grown two weeks, 1,000 g active ingredient per hectare, 14th day after application
Outline: (§2)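 Seeds went into pots of field soil and grew under glass for two weeks. The whole plant was then sprayed from above with diluted wettable powder delivering 1,000 g/ha of active ingredient. Plants stayed in the greenhouse, and injury was graded against a standard 14 days after spraying.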

[5] = test system: velvetleaf (Abutilon theophrasti medicus); test: as above; settings: foliage treatment, plants grown two weeks, 1,000 g active ingredient per hectare, 14th day after application
Outline: as §2

[6] = test system: green foxtail (Setaria viridis (L.) P. Beauv.); test: as above; settings: foliage treatment, plants grown two weeks, 1,000 g active ingredient per hectare, 14th day after application
Outline: as §2

[7] = test system: slender amaranth (Amaranthus viridis L.); test: as above; settings: foliage treatment, plants grown two weeks, 1,000 g active ingredient per hectare, 14th day after application
Outline: as §2

[8] = test system: barnyardgrass (Echinochloa crus-galli (L.) P. Beauv. var. crus-galli); test: Test Example 2: herbicidal effect by soil application to upland field; settings: soil surface spray, upland field soil, 1,000 g active ingredient per hectare, 21st day after application
Outline: (§3)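 Dose was 1,000 g active ingredient per hectare, applied as a wettable powder diluted in water and sprayed evenly over the soil of sown, covered pots at a 1,000 L/ha equivalent. Effect was judged by a standard scale 21 d later under greenhouse conditions.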

[9] = test system: velvetleaf (Abutilon theophrasti medicus); test: as above; settings: soil surface spray, upland field soil, 1,000 g active ingredient per hectare, 21st day after application
Outline: as §3

[10] = test system: green foxtail (Setaria viridis (L.) P. Beauv.); test: as above; settings: soil surface spray, upland field soil, 1,000 g active ingredient per hectare, 21st day after application
Outline: as §3

[11] = test system: slender amaranth (Amaranthus viridis L.); test: as above; settings: soil surface spray, upland field soil, 1,000 g active ingredient per hectare, 21st day after application
Outline: as §3

Row | SMILES | herbicidal effect, Monochoria vaginalis (Burm. f.) C. Presl [1] | herbicidal effect, Scirpus juncoides Roxb. [2] | herbicidal effect, Echinochloa oryzicola Vasing [3] | herbicidal effect (index), Barnyardgrass [4] | herbicidal effect (index), Velvetleaf [5] | herbicidal effect (index), Green Foxtail [6] | herbicidal effect (index), Slender Amaranth [7] | herbicidal effect (index), Barnyardgrass [8] | herbicidal effect (index), Velvetleaf [9] | herbicidal effect (index), Green Foxtail [10] | herbicidal effect (index), Slender Amaranth [11]
1 | O=C1CCCC(O)=C1C(=O)c1ccc(C(F)(F)F)n(C2CCCC2)c1=O [I-18] | 5 (90% or more of herbicidal effect and crop phytotoxicity) | 5 (90% or more of herbicidal effect and crop phytotoxicity) | 5 (90% or more of herbicidal effect and crop phytotoxicity) | 5 (90% or more of herbicidal effect and crop phytotoxicity) | 5 (90% or more of herbicidal effect and crop phytotoxicity) | 5 (90% or more of herbicidal effect and crop phytotoxicity) | 5 (90% or more of herbicidal effect and crop phytotoxicity) | 5 (90% or more of herbicidal effect and crop phytotoxicity) | 5 (90% or more of herbicidal effect and crop phytotoxicity) | 5 (90% or more of herbicidal effect and crop phytotoxicity) | 5 (90% or more of herbicidal effect and crop phytotoxicity)
2 | O=C1CCCC(O)=C1C(=O)c1ccc(C(F)(F)F)n(CC2CC2)c1=O [I-20] | 5 (90% or more of herbicidal effect and crop phytotoxicity) | 5 (90% or more of herbicidal effect and crop phytotoxicity) | 5 (90% or more of herbicidal effect and crop phytotoxicity) | 5 (90% or more of herbicidal effect and crop phytotoxicity) | 5 (90% or more of herbicidal effect and crop phytotoxicity) | 5 (90% or more of herbicidal effect and crop phytotoxicity) | 5 (90% or more of herbicidal effect and crop phytotoxicity) | 5 (90% or more of herbicidal effect and crop phytotoxicity) | 5 (90% or more of herbicidal effect and crop phytotoxicity) | 5 (90% or more of herbicidal effect and crop phytotoxicity) | 5 (90% or more of herbicidal effect and crop phytotoxicity)
3 | O=C1CCCC(O)=C1C(=O)c1ccc(C(F)(F)F)n(CCC=C(Cl)Cl)c1=O [I-26] | 5 (90% or more of herbicidal effect and crop phytotoxicity) | 5 (90% or more of herbicidal effect and crop phytotoxicity) | 5 (90% or more of herbicidal effect and crop phytotoxicity) | 4 (70 to less than 90% of herbicidal effect and crop phytotoxicity) | 5 (90% or more of herbicidal effect and crop phytotoxicity) | 4 (70 to less than 90% of herbicidal effect and crop phytotoxicity) | 5 (90% or more of herbicidal effect and crop phytotoxicity) | 5 (90% or more of herbicidal effect and crop phytotoxicity) | 5 (90% or more of herbicidal effect and crop phytotoxicity) | 5 (90% or more of herbicidal effect and crop phytotoxicity) | 5 (90% or more of herbicidal effect and crop phytotoxicity)
4 | COCCn1c(C(F)(F)F)ccc(C(=O)C2=C(O)CCCC2=O)c1=O [I-31] | 5 (90% or more of herbicidal effect and crop phytotoxicity) | 5 (90% or more of herbicidal effect and crop phytotoxicity) | 5 (90% or more of herbicidal effect and crop phytotoxicity) | 5 (90% or more of herbicidal effect and crop phytotoxicity) | 5 (90% or more of herbicidal effect and crop phytotoxicity) | 5 (90% or more of herbicidal effect and crop phytotoxicity) | 5 (90% or more of herbicidal effect and crop phytotoxicity) | 5 (90% or more of herbicidal effect and crop phytotoxicity) | 5 (90% or more of herbicidal effect and crop phytotoxicity) | 5 (90% or more of herbicidal effect and crop phytotoxicity) | 5 (90% or more of herbicidal effect and crop phytotoxicity)
5 | CCOCCn1c(C(F)(F)F)ccc(C(=O)C2=C(O)CCCC2=O)c1=O [I-32] | 5 (90% or more of herbicidal effect and crop phytotoxicity) | 5 (90% or more of herbicidal effect and crop phytotoxicity) | 5 (90% or more of herbicidal effect and crop phytotoxicity) | 5 (90% or more of herbicidal effect and crop phytotoxicity) | 5 (90% or more of herbicidal effect and crop phytotoxicity) | 5 (90% or more of herbicidal effect and crop phytotoxicity) | 5 (90% or more of herbicidal effect and crop phytotoxicity) | 5 (90% or more of herbicidal effect and crop phytotoxicity) | 5 (90% or more of herbicidal effect and crop phytotoxicity) | 5 (90% or more of herbicidal effect and crop phytotoxicity) | 5 (90% or more of herbicidal effect and crop phytotoxicity)
6 | COCC(C)n1c(C(F)(F)F)ccc(C(=O)C2=C(O)CCCC2=O)c1=O (stereo not shown) [I-33] | 5 (90% or more of herbicidal effect and crop phytotoxicity) | 5 (90% or more of herbicidal effect and crop phytotoxicity) | 5 (90% or more of herbicidal effect and crop phytotoxicity) | 5 (90% or more of herbicidal effect and crop phytotoxicity) | 5 (90% or more of herbicidal effect and crop phytotoxicity) | 4 (70 to less than 90% of herbicidal effect and crop phytotoxicity) | 5 (90% or more of herbicidal effect and crop phytotoxicity) | 5 (90% or more of herbicidal effect and crop phytotoxicity) | 5 (90% or more of herbicidal effect and crop phytotoxicity) | 3 (50 to less than 70% of herbicidal effect and crop phytotoxicity) | 5 (90% or more of herbicidal effect and crop phytotoxicity)
7 | COCCOCCn1c(C(F)(F)F)ccc(C(=O)C2=C(O)CCCC2=O)c1=O [I-34] | 5 (90% or more of herbicidal effect and crop phytotoxicity) | 5 (90% or more of herbicidal effect and crop phytotoxicity) | 5 (90% or more of herbicidal effect and crop phytotoxicity) | 5 (90% or more of herbicidal effect and crop phytotoxicity) | 5 (90% or more of herbicidal effect and crop phytotoxicity) | 5 (90% or more of herbicidal effect and crop phytotoxicity) | 5 (90% or more of herbicidal effect and crop phytotoxicity) | 5 (90% or more of herbicidal effect and crop phytotoxicity) | 5 (90% or more of herbicidal effect and crop phytotoxicity) | 5 (90% or more of herbicidal effect and crop phytotoxicity) | 5 (90% or more of herbicidal effect and crop phytotoxicity)
8 | N#CCCn1c(C(F)(F)F)ccc(C(=O)C2=C(O)CCCC2=O)c1=O [I-44] | 5 (90% or more of herbicidal effect and crop phytotoxicity) | 5 (90% or more of herbicidal effect and crop phytotoxicity) | 5 (90% or more of herbicidal effect and crop phytotoxicity) | 5 (90% or more of herbicidal effect and crop phytotoxicity) | 5 (90% or more of herbicidal effect and crop phytotoxicity) | 5 (90% or more of herbicidal effect and crop phytotoxicity) | 5 (90% or more of herbicidal effect and crop phytotoxicity) | 5 (90% or more of herbicidal effect and crop phytotoxicity) | 5 (90% or more of herbicidal effect and crop phytotoxicity) | 5 (90% or more of herbicidal effect and crop phytotoxicity) | 5 (90% or more of herbicidal effect and crop phytotoxicity)

Reference: patent US8076487B2, “Pyridone derivative and herbicide” (Kumiai Chemical Industry Co., Ltd., priority 2006, dated 2011)
